Source: PubChem BioAssay AID1963869 (Molecular Pharmacology Branch, DTP, NCI, 2024)

System: KRAS patient-derived spheroids with HUVEC/MSC, viability
Test: Anticancer human tumor 323965-272-R-J2-PDC patient-derived pancreatic carcinoma cell line growth inhibition [KRAS2]
Conditions: for IC50: curve of first compound; for viability, T/C: stronger effect = lower value
Summary of the method: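 Combination screen of spheroid viability in tumor-cell co-cultures with endothelial (HUVEC) and mesenchymal stem cell stroma. Each agent was tested in half-log dilutions, topping at clinical Cmax or at 10 microM without a known Cmax.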

[1] = second compound 0.1 µM, first compound 0.0316 µM
[2] = second compound 0.1 µM, first compound 0.1 µM
[3] = second compound 0.1 µM, first compound 0.316 µM
[4] = second compound 0.1 µM, first compound 1 µM
[5] = second compound 0.1 µM, first compound 3.16 µM
[6] = second compound 0.1 µM, first compound 10 µM
[7] = second compound 0.316 µM, first compound 0.0316 µM
[8] = second compound 0.316 µM, first compound 0.1 µM
[9] = second compound 0.316 µM, first compound 0.316 µM
[10] = second compound 0.316 µM, first compound 1 µM
[11] = second compound 0.316 µM, first compound 3.16 µM
[12] = second compound 0.316 µM, first compound 10 µM
[13] = second compound 1 µM, first compound 0.0316 µM
[14] = second compound 1 µM, first compound 0.1 µM
[15] = second compound 1 µM, first compound 0.316 µM
[16] = second compound 1 µM, first compound 1 µM
[17] = second compound 1 µM, first compound 3.16 µM
[18] = second compound 1 µM, first compound 10 µM
[19] = second compound 3.16 µM, first compound 0.0316 µM
[20] = second compound 3.16 µM, first compound 0.1 µM
[21] = second compound 3.16 µM, first compound 0.316 µM
[22] = second compound 3.16 µM, first compound 1 µM
[23] = second compound 3.16 µM, first compound 3.16 µM
[24] = second compound 3.16 µM, first compound 10 µM
[25] = second compound 10 µM, first compound 0.0316 µM
[26] = second compound 10 µM, first compound 0.1 µM
[27] = second compound 10 µM, first compound 0.316 µM
[28] = second compound 10 µM, first compound 1 µM
[29] = second compound 10 µM, first compound 3.16 µM
[30] = second compound 10 µM, first compound 10 µM
[31] = second compound 0.1 µM, first compound 0.000316 µM
[32] = second compound 0.1 µM, first compound 0.001 µM
[33] = second compound 0.1 µM, first compound 0.00316 µM
[34] = second compound 0.1 µM, first compound 0.01 µM
[35] = second compound 0.316 µM, first compound 0.000316 µM
[36] = second compound 0.316 µM, first compound 0.001 µM
[37] = second compound 0.316 µM, first compound 0.00316 µM
[38] = second compound 0.316 µM, first compound 0.01 µM
[39] = second compound 1 µM, first compound 0.000316 µM
[40] = second compound 1 µM, first compound 0.001 µM
[41] = second compound 1 µM, first compound 0.00316 µM
[42] = second compound 1 µM, first compound 0.01 µM
[43] = second compound 3.16 µM, first compound 0.000316 µM
[44] = second compound 3.16 µM, first compound 0.001 µM
[45] = second compound 3.16 µM, first compound 0.00316 µM
[46] = second compound 3.16 µM, first compound 0.01 µM
[47] = second compound 10 µM, first compound 0.000316 µM
[48] = second compound 10 µM, first compound 0.001 µM
[49] = second compound 10 µM, first compound 0.00316 µM
[50] = second compound 10 µM, first compound 0.01 µM
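Further: spheroids exposed to agents for 7 days.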
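Wherever viability, T/C is given: 100% = DMSO vehicle control viability.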

SMILES | IC50 (second compound 0.1 µM) | IC50 (second compound 0.316 µM) | IC50 (second compound 1 µM) | IC50 (second compound 3.16 µM) | IC50 (second compound 10 µM) | viability, T/C [1] | viability, T/C [2] | viability, T/C [3] | viability, T/C [4] | viability, T/C [5] | viability, T/C [6] | viability, T/C [7] | viability, T/C [8] | viability, T/C [9] | viability, T/C [13] | viability, T/C [14] | viability, T/C [19] | viability, T/C [20] | viability, T/C [25] | viability, T/C [26] | further results
CC(C)NCC(C(=O)N1CCN(c2ncnc3c2C(C)CC3O)CC1)c1ccc(Cl)cc1 (stereo not given) + CC1OCC2(CCN(c3cnc(Sc4ccnc(N)c4Cl)c(N)n3)CC2)C1N | 0.732 µM | 0.143 µM | < 0.0316 µM | < 0.0316 µM | < 0.0316 µM | 84.6% | 72.5% | 57.6% | 44.9% | 42.1% | 32.4% | 60.2% | 54.2% | 40.8% | 38.5% | 35.3% | 24.8% | 20.3% | 20.8% | 19.1% | viability, T/C [10]: 29%; viability, T/C [11]: 27.9%; viability, T/C [12]: 23.6%; viability, T/C [15]: 21.5%; viability, T/C [16]: 12.7%; viability, T/C [17]: 12.6%; viability, T/C [18]: 10.4%; viability, T/C [21]: 12.6%; viability, T/C [22]: 7.8%; viability, T/C [23]: 5.77%; viability, T/C [24]: 3.98%; viability, T/C [27]: 11.5%; viability, T/C [28]: 6.63%; viability, T/C [29]: 4.73%; viability, T/C [30]: 2.87%
CC(C)n1nc(-c2ccc3oc(N)nc3c2)c2c(N)ncnc21 + CC1OCC2(CCN(c3cnc(Sc4ccnc(N)c4Cl)c(N)n3)CC2)C1N | 0.00123 µM | < 0.000316 µM | < 0.000316 µM | < 0.000316 µM | < 0.000316 µM | 18.1% | 13.7% | – | – | – | – | 12.4% | 5.7% | – | 7.51% | 2.03% | 4.33% | 1.32% | 1.96% | 0.92% | viability, T/C [31]: 77%; viability, T/C [32]: 52.3%; viability, T/C [33]: 36.2%; viability, T/C [34]: 26.7%; viability, T/C [35]: 46.2%; viability, T/C [36]: 42.1%; viability, T/C [37]: 31.8%; viability, T/C [38]: 21%; viability, T/C [39]: 47.9%; viability, T/C [40]: 35.9%; viability, T/C [41]: 26.8%; viability, T/C [42]: 15.6%; viability, T/C [43]: 36.2%; viability, T/C [44]: 27%; viability, T/C [45]: 21.4%; viability, T/C [46]: 10.4%; viability, T/C [47]: 28.1%; viability, T/C [48]: 22.7%; viability, T/C [49]: 15.6%; viability, T/C [50]: 6.84%
CC1(C)CCC(CN2CCN(c3ccc(C(=O)NS(=O)(=O)c4ccc(NCC5CCOCC5)c([N+](=O)[O-])c4)c(Oc4cnc5[nH]ccc5c4)c3)CC2)=C(c2ccc(Cl)cc2)C1 + CC1OCC2(CCN(c3cnc(Sc4ccnc(N)c4Cl)c(N)n3)CC2)C1N | 1.38 µM | 1.07 µM | < 0.0316 µM | < 0.0316 µM | < 0.0316 µM | 81.6% | 74.7% | 78% | 65.3% | 10.1% | 3.29% | 56.9% | 63.4% | 49.9% | 43.9% | 45.9% | 37.3% | 32.7% | 24.6% | 24.5% | viability, T/C [10]: 53%; viability, T/C [11]: 6.85%; viability, T/C [12]: 2.39%; viability, T/C [15]: 40.5%; viability, T/C [16]: 34%; viability, T/C [17]: 5.15%; viability, T/C [18]: 1.19%; viability, T/C [21]: 26.6%; viability, T/C [22]: 20.2%; viability, T/C [23]: 4.11%; viability, T/C [24]: 1.21%; viability, T/C [27]: 25.4%; viability, T/C [28]: 20.9%; viability, T/C [29]: 2.63%; viability, T/C [30]: 0.27%
Cn1ncnc1[C@H]1c2n[nH]c(=O)c3cc(F)cc(c23)N[C@@H]1c1ccc(F)cc1 + CC1OCC2(CCN(c3cnc(Sc4ccnc(N)c4Cl)c(N)n3)CC2)C1N | > 0.1 µM | 0.0359 µM | < 0.000316 µM | < 0.000316 µM | < 0.000316 µM | 76.2% | 62% | – | – | – | – | 51.2% | 45% | – | 42% | 38% | 24.4% | 21% | 18.7% | 17.2% | viability, T/C [31]: 80.9%; viability, T/C [32]: 82.9%; viability, T/C [33]: 82.9%; viability, T/C [34]: 79.7%; viability, T/C [35]: 57.5%; viability, T/C [36]: 62.5%; viability, T/C [37]: 55.2%; viability, T/C [38]: 53.6%; viability, T/C [39]: 44%; viability, T/C [40]: 47.5%; viability, T/C [41]: 45.7%; viability, T/C [42]: 43.7%; viability, T/C [43]: 34.4%; viability, T/C [44]: 32%; viability, T/C [45]: 30.1%; viability, T/C [46]: 28.2%; viability, T/C [47]: 29.3%; viability, T/C [48]: 23.2%; viability, T/C [49]: 20.8%; viability, T/C [50]: 20.1%
